Target: T1, hNLRP3 (Homo sapiens, UniProt Q96P20)
T1 construct: THP-1 cells were purchased from the American Type Culture Collection; host or cells: THP-1 cells, PMA-differentiated
Assay: Measurement of IL-1β production in PMA-differentiated THP-1 cells (hNLRP3 agonist; ELISA, alternative and hTRF procedures)
Type: cell-based
Method: Measurement of IL-1β production in PMA-differentiated THP-1 cells THP-1 cells were purchased from the American Type Culture Collection and sub-cultured according to instructions from the supplier. Prior to experiments, cells were cultured in RPMI 1640 containing 10% heat inactivated FBS, penicillin (100 units/ml) and streptomycin (100 μg/ml), and maintained in log phase prior to experimental setup. Prior to the experiment THP-1 were treated with PMA (Phorbol 12-myristate 13-acetate) ([…]) for 24 hours. The day of the experiment the media was removed and attaching cells were treated with trypsin for 2 minutes, cells were then collected, washed with PBS (phosphate buffer saline), spin down, resuspended in 2% heat inactivated FBS with RPMI at a concentration of 1×10^6 cells/ml, and 100 μl was plated in a 96 well plate. Compounds were dissolved in dimethyl sulfoxide (DMSO) and added to the culture medium to achieve desired concentration (e.g. 100, 30, 10, 3, 1, 0.3 or 0.1 μM). Cells were incubated with compounds for 4 hours. Cell free supernatant was collected and the production of […] was evaluated by ELISA. A vehicle only control was run concurrently with each experiment. Final DMSO concentration was 1%.
Measurement of IL-1β Production in PMA-Differentiated THP-1 Cells (Alternative Procedure)
THP-1 cells were purchased from the American Type Culture Collection and sub-cultured according to instructions from the supplier. Prior to experiments, cells were cultured in RPMI 1640 containing 10% heat inactivated FBS, penicillin (100 units/ml), streptomycin (100 μg/ml), HEPES (10 mM) and sodium pyruvate (1 mM) and maintained in log phase prior to experimental setup. Prior to the experiment, THP-1 cells were treated with PMA (Phorbol 12-myristate 13-acetate) (20 μg/ml) overnight. The day of the experiment, the media was removed and attached cells were treated with trypsin for 2 minutes, cells were then collected, washed with PBS (phosphate buffer saline), pelleted by centrifugation and resuspended in 2% heat inactivated FBS with RPMI at a concentration of 50,000 cells/well in a 384 well plate. Cell free supernatant was collected and the production of IL-1β was evaluated by ELISA. Compounds were dissolved in dimethyl sulfoxide (DMSO) and added to the culture medium to achieve desired concentration (e.g. 100, 30, 10, 3, 1, 0.3 or 0.1 μM). Cells were incubated with compounds for 2 hours. A vehicle only control was run concurrently with each experiment. Final DMSO concentration was 1%.
Measurement of IL-1β Production—hTRF Protocol (Second Alternative Procedure)
Serial dilutions of compounds in DMSO were added to low volume 384 well plates at 100 nl/well using an ECHO 550 acoustic dispenser (Labcyte) to achieve final starting concentration of 10 μM in assay.
THP-1 cells in RPMI (Gibco, 11875) media with 10% FBS at a density of 1×10^6 cell/ml in a T175 flask were treated with a final concentration of phorbol 12-myristate 13-acetate (PMA) (Sigma, P1585) of 50 ng/ml overnight at 37° C. at 5% CO2 for differentiation. Cells were harvested the next day after rinsing well with dPBS using 0.5% trypsin. A cell solution was prepared of 1×10^6 cells/ml for 50,000 cells in 50 μl/well in RPMI media with 2% FBS. Cells were plated using a multichannel pipette onto the compound dilutions in Greiner, 384 well, black clear bottom tissue culture treated plates (781090). The plates were incubated in 37° C. incubator at 5% CO2 for 2 hours.
After the 2 hour incubation, the cell plates were spun in the centrifuge for 5 minutes at 1200 rpm. Using the Felix (CyBio), 8 μl of the supernatant was transferred to 384 well, low volume, white proxy plates. (Perkin Elmer, 6008230). A human IL1beta hTRF kit was used to analyze the supernatant (CISBIO, 62HIL1BPEG). The kit instructions were followed for preparing the IL1Beta standard curve and then the antibodies from the kit were diluted 1:40 rather than 1:20 as kit instructed.

T1 sequence (Q96P20 whole entry): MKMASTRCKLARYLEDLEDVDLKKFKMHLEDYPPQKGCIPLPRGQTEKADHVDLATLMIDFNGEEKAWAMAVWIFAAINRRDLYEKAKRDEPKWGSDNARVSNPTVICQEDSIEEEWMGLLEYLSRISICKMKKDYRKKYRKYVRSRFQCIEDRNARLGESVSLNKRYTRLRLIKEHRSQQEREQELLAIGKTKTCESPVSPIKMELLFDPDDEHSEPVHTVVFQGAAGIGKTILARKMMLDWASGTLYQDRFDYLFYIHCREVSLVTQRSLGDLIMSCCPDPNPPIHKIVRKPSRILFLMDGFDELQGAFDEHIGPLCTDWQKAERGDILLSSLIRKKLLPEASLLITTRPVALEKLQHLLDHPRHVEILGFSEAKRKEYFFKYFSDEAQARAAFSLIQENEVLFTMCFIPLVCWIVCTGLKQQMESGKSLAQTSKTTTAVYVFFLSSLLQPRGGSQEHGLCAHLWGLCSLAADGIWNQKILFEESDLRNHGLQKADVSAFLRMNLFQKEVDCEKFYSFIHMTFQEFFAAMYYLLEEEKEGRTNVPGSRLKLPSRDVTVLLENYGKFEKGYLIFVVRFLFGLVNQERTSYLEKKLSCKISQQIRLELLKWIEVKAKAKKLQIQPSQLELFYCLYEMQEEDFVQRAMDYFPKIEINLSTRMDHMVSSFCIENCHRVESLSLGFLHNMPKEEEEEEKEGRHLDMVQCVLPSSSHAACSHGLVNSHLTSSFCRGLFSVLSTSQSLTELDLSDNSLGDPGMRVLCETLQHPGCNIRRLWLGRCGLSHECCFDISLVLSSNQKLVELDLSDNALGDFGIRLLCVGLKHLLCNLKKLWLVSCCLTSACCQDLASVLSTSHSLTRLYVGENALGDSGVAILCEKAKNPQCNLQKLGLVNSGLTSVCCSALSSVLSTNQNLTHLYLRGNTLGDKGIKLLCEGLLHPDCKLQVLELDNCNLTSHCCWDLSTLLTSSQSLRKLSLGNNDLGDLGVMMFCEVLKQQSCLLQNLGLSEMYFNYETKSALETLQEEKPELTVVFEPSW

Row | EC50 [µM] | Structure (SMILES)
1 | 0.52 | Nc1nc2cc(-n3cccn3)ccc2c2[nH]c(CN3CC(c4ccccc4)CC3=O)nc12 (stereo not drawn) [Compound 103]
2 | 0.6 | CCN(Cc1nc2c(N)nc3cc(C)ccc3c2[nH]1)C(C)=O [Compound 104]
3 | 0.7 | CCNCc1nc2c(N)nc3cc(-c4cc[nH]n4)ccc3c2n1C [Compound 106, 2-((Ethylamino)methyl)-1-methyl-7-(1H-pyrazol-3-yl)-1H-imidazo[4,5-c]quinolin-4-amine]
4 | 0.87 | CCN(Cc1nc2c(N)nc3cc(-n4cccn4)ccc3c2[nH]1)S(C)(=O)=O [Compound 108, N-((4-Amino-7-(1H-pyrazol-1-yl)-1H-imidazo[4,5-c]quinolin-2-yl)methyl)-N-ethylmethanesulfonamide]
5 | 0.88 | CCN(Cc1nc2c(N)nc3cc(-c4cc[nH]n4)ccc3c2[nH]1)C(=O)OC(C)(C)C [Compound 109, tert-Butyl ((4-amino-7-(1H-pyrazol-3-yl)-1H-imidazo[4,5-c]quinolin-2-yl)methyl)(ethyl)carbamate]
6 | 0.9 | CCN(Cc1nc2c(N)nc3cc(-c4cc[nH]n4)ccc3c2[nH]1)C(=O)N(C)C [Compound 110, 1-((4-Amino-7-(1H-pyrazol-3-yl)-1H-imidazo[4,5-c]quinolin-2-yl)methyl)-1-ethyl-3,3-dimethylurea]
7 | 48.4 | Nc1nc2cc(C(F)(F)F)ccc2c2[nH]c(CN3CCCC3=O)nc12 [Compound 163]
8 | 4.6 | CCN(Cc1nc2c(N)nc3ccccc3c2n1CCCC(=O)OC)C(C)=O [Compound 164]
9 | 0.19 | CCN(Cc1nc2c(N)nc3cc(-c4ccccc4)ccc3c2[nH]1)C(C)=O [Compound 165, N-[(4-amino-7-phenyl-1H-imidazo[4,5-c]quinolin-2-yl)methyl]-N-ethylacetamide]
10 | 3.4 | CCN(Cc1nc2c(N)nc3cc(-c4cccnc4)ccc3c2[nH]1)C(C)=O [Compound 166, N-[(4-amino-7-pyridin-3-yl-1H-imidazo[4,5-c]quinolin-2-yl)methyl]-N-ethylacetamide]
11 | 58 | CCN(Cc1nc2c(N)nc3cc(-c4ccncc4)ccc3c2[nH]1)C(C)=O [Compound 167, N-[(4-amino-7-pyridin-4-yl-1H-imidazo[4,5-c]quinolin-2-yl)methyl]-N-ethylacetamide]
12 | 101 | CCN(Cc1nc2c(N)nc3cc(-c4cc(C)nn4C)ccc3c2[nH]1)C(C)=O [Compound 168, N-[[4-amino-7-(2,5-dimethylpyrazol-3-yl)-1H-imidazo[4,5-c]quinolin-2-yl]methyl]-N-ethylacetamide]
13 | 92 | CCCn1cc(-c2ccc3c(c2)nc(N)c2nc(CN(CC)C(C)=O)[nH]c23)cn1 [Compound 169, N-[[4-amino-7-(1-propylpyrazol-4-yl)-1H-imidazo[4,5-c]quinolin-2-yl]methyl]-N-ethylacetamide]
14 | 7.9 | CCN(Cc1nc2c(N)nc3cc(C(C)C)ccc3c2[nH]1)C(C)=O [Compound 170, N-[(4-amino-7-propan-2-yl-1H-imidazo[4,5-c]quinolin-2-yl)methyl]-N-ethylacetamide]
15 | 3.2 | CCc1ccc2c(c1)nc(N)c1nc(CN(CC)C(C)=O)[nH]c12 [Compound 171, N-[(4-amino-7-ethyl-1H-imidazo[4,5-c]quinolin-2-yl)methyl]-N-ethylacetamide]
16 | 2.1 | CCCc1ccc2c(c1)nc(N)c1nc(CN(CC)C(C)=O)[nH]c12 [Compound 172, N-[(4-amino-7-propyl-1H-imidazo[4,5-c]quinolin-2-yl)methyl]-N-ethylacetamide]
17 | 0.84 | CCN(Cc1nc2c(N)nc3cc(C4CCCC4)ccc3c2[nH]1)C(C)=O [Compound 173, N-[(4-amino-7-cyclopentyl-1H-imidazo[4,5-c]quinolin-2-yl)methyl]-N-ethylacetamide]
18 | 2.6 | CCN(Cc1nc2c(N)nc3cc(-c4cccnc4F)ccc3c2[nH]1)C(C)=O [Compound 175, N-[[4-amino-7-(2-fluoropyridin-3-yl)-1H-imidazo[4,5-c]quinolin-2-yl]methyl]-N-ethylacetamide]
19 | 25.7 | CCN(Cc1nc2c(N)nc3ccccc3c2[nH]1)C(C)=O [Compound 176]
20 | 7.4 | CCN(Cc1nc2c(N)nc3cc(Br)ccc3c2[nH]1)C(C)=O [Compound 177]
21 | 12.5 | CCN(Cc1nc2c(N)nc3cc(Cl)ccc3c2[nH]1)C(C)=O [Compound 179, N-[(4-amino-7-chloro-1H-imidazo[4,5-c]quinolin-2-yl)methyl]-N-ethylacetamide]
22 | 1.5 | CCN(Cc1nc2c(N)nc3cc(-n4cccn4)ccc3c2[nH]1)C(C)=O [Compound 180, N-[(4-amino-7-pyrazol-1-yl-1H-imidazo[4,5-c]quinolin-2-yl)methyl]-N-ethylacetamide]
23 | 0.52 | CCN(Cc1nc2c(N)nc3cc(C4=CCCC4)ccc3c2[nH]1)C(C)=O [Compound 183]

Row | EC50 [µM] | Structure (SMILES)
24 | 64 | CC(=O)N(C)Cc1nc2c(N)nc3ccccc3c2[nH]1 [Compound 187]
25 | 5.7 | COC(=O)CCCn1c(CN(C)C(C)=O)nc2c(N)nc3ccccc3c21 [Compound 188]
26 | 10.3 | CCN(Cc1nc2c(N)nc3cc(C4CC4)ccc3c2n1Cc1ccc(OC)cc1)C(C)=O [Compound 190]
27 | 65 | CCN(Cc1nc2c(N)nc3ccccc3c2n1CCCNC(=O)OC(C)(C)C)C(C)=O [Compound 191]
28 | 7.9 | CCN(Cc1nc2c(N)nc3ccc(Br)cc3c2[nH]1)C(C)=O [Compound 194]
29 | 32.7 | CCN(Cc1nc2c(N)nc3cc(N4CCNC4=O)ccc3c2n1Cc1ccc(OC)cc1)C(C)=O [Compound 196]
30 | 13.7 | CCN(Cc1nc2c(N)nc3ccc(Cl)cc3c2[nH]1)C(C)=O [Compound 197]
31 | 24.2 | CCOC(=O)c1cc2c(cc1Br)nc(N)c1nc(CN(CC)C(C)=O)[nH]c12 [Compound 198]
32 | 11.9 | CCN(Cc1nc2c(N)nc3ccc(Br)cc3c2[nH]1)C(=O)OC [Compound 200]
33 | 20.8 | CCN(Cc1nc2c(N)nc3ccc(Br)cc3c2[nH]1)S(C)(=O)=O [Compound 201]
34 | 35.9 | CCN(Cc1nc2c(N)nc3ccc(Br)cc3c2[nH]1)S(=O)(=O)c1ccc(C)cc1 [Compound 202]
35 | 10.8 | CCN(Cc1nc2c(N)nc3ccc(Br)cc3c2[nH]1)C(=O)C(C)C [Compound 203]
36 | 6.7 | CCN(Cc1nc2c(N)nc3ccc(Br)cc3c2[nH]1)C(=O)c1ccccc1 [Compound 204]
37 | 36 | CCN(Cc1nc2c(N)nc3ccccc3c2n1CCC(=O)N1CCOCC1)C(=O)OC(C)(C)C [Compound 205]
38 | 73 | CCN(Cc1nc2c(N)nc3ccc(-n4cccn4)cc3c2[nH]1)C(C)=O [Compound 207]
39 | 22 | CCN(Cc1nc2c(N)nc3cc(Br)ccc3c2n1CCCC(=O)N1CCN(C)CC1)C(C)=O [Compound 209]
40 | 61 | CCN(Cc1nc2c(N)nc3cc(Br)ccc3c2n1CCCC(=O)NC)C(C)=O [Compound 210]
41 | 40 | CCN(Cc1nc2c(N)nc3ccccc3c2n1CCC(=O)N1CCN(C(=O)OC(C)(C)C)CC1)C(=O)OC(C)(C)C [Compound 211]
42 | 85 | CCN(Cc1nc2c(N)nc3ccccc3c2n1CCC(=O)N1CCN(C(=O)OC(C)(C)C)CC1)C(C)=O [Compound 212]
43 | 17.6 | CCN(Cc1nc2c(N)nc3cc(Br)ccc3c2n1CCCC(=O)N(C)C)C(C)=O [Compound 213]
44 | 51.5 | CCN(Cc1nc2c(N)nc3cc(Br)ccc3c2n1CCCC(=O)N1CCOCC1)C(C)=O [Compound 214]
45 | 18.2 | CN(C)C(=O)CCCn1c(CN2CCCC2=O)nc2c(N)nc3cc(Br)ccc3c21 [Compound 215]
